According to ChEMBL document CHEMBL1201862, “PubChem BioAssay data set” (2004):
Calls of active or inactive are those of the source.

Key:
Cysteine protease ATG4B = Cysteine protease ATG4B (Homo sapiens, UniProt Q9Y4P1); type: functional;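 note: Fluorescence-based dose-response confirmation assay measuring inhibition of ATG4B activity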
Phospholipase A2 = Phospholipase A2 (Homo sapiens, UniProt P04054); type: functional;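 note: confirmatory dose-response counterscreen on phospholipase A2, testing hits that came from an ultra-high-throughput screen for ATG4B inhibitors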
[1] = molecular target: T1, Carboxy-terminal domain RNA polymerase II polypeptide A small phosphatase 1 (Homo sapiens, UniProt Q9GZU7); test: inhibitors of CTDSP1, concentration-response testing, biochemical assay, absorbance-based, actives from ultra-high-throughput screening (AID 540297); type: functional
T1 sequence (Q9GZU7 whole entry): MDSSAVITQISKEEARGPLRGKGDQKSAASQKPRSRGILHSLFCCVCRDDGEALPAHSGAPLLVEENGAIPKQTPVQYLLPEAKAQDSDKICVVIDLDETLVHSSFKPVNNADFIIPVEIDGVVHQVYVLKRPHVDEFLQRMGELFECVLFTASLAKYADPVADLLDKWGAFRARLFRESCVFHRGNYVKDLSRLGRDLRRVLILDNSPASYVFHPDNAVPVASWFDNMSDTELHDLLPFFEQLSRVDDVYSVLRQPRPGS

[2] = molecular target: DNA (cytosine-5)-methyltransferase 1 (Homo sapiens, UniProt P26358); test: DNMT1 methyltransferase inhibitors, confirmation, biochemical, fluorescent molecular beacon (AID 602386); type: functional
DNA topoisomerase = DNA topoisomerase (Yersinia pestis, UniProt A0A2S9PM60); test: Y. pestis Topo-I inhibitors, cleavage product readout, dose response, biochemical, cherry-pick (AID 588525)
[3] = molecular target: Low molecular weight phosphotyrosine protein phosphatase (Homo sapiens, UniProt P24666); type: functional; details: read-out: IC50_Mean;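 note: Dose-response confirmation assay measuring inhibition of LMPTP enzyme activity by fluorescence intensity read-out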
[4] = Luminescence Cell-Based Dose Retest to Confirm Inhibitors of Cancer Stem Cells. [Related pubchem assays (depositor defined):AID2717, AID2721]; type: functional; details: Homo sapiens
[5] = cytotoxicity in NIH3T3 fibroblasts, dose response, cytotoxicity control for HSP40 inhibitor project, cell-based, CellTiter-Glo luminescence, cherry-pick, set 2 (AID 624265); type: functional
[6] = molecular target: T2, Heat shock factor protein 1 (Mus musculus, UniProt P38532); test: inhibition of MG132-induced HSE-luciferase signal, confirmation, cell-based, NIH3T3, luminescence, dose retest (AID 2382); type: functional;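 note: NIH3T3 fibroblasts with HSF1-driven luciferase reporter stressed by proteasome inhibitor MG132; luminescence from HSF1-driven luciferase expression after 8 hours of MG132 stress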
T2 sequence (P38532 whole entry): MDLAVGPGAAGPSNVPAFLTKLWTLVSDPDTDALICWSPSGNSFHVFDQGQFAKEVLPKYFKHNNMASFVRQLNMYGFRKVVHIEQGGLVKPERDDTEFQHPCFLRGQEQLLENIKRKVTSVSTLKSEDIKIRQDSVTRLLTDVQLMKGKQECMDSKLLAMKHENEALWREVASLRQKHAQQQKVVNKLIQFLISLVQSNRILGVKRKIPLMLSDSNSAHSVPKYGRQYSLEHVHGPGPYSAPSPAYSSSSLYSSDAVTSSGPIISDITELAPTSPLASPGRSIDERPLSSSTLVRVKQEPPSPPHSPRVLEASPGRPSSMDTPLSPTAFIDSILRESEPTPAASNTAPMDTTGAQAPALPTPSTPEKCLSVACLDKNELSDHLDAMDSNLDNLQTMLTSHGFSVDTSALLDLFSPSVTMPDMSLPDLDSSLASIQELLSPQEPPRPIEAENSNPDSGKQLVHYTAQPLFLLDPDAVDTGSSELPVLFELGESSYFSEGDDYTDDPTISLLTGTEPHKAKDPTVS

[7] = molecular target: T3, Microphthalmia-associated transcription factor (Homo sapiens, UniProt O75030); test: TRPM1 promoter luciferase signal decrease, dose response, MITF inhibitor project, cell-based, SK-MEL-5, cherry-picked, set 3 (AID 493073); type: functional
T3 sequence (O75030 whole entry): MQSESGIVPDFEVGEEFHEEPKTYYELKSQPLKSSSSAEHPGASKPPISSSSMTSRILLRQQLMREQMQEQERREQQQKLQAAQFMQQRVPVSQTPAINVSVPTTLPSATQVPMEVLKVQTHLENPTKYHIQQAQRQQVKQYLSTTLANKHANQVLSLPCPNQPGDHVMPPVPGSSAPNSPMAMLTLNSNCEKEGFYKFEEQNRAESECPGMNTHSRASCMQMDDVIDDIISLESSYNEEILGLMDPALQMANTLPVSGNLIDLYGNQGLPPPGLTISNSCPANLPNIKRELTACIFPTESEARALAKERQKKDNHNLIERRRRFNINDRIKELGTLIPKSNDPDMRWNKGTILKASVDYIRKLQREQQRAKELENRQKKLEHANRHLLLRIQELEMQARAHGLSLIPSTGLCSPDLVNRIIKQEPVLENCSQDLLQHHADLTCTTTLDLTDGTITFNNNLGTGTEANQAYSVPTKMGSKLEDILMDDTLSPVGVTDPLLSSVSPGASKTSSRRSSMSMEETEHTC

A-375 [8] = test: A375 melanoma cell viability reduction, dose response, counter-screen for MITF modulator project, cherry-pick samples, set 2 (AID 540335); type: functional, cell-based; details: Homo sapiens
A-375 [9] = test: MITF: Counter assay: A375 proliferation Measured in Cell-Based System Using Plate Reader - 2084-03_Inhibitor_Dose_DryPowder_Activity. [Related pubchem assays (depositor defined):AID488944]; type: functional; details: Homo sapiens
Melanocortin receptor 4 = Melanocortin receptor 4 (Homo sapiens, UniProt P32245); type: functional, cell-based;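 note: Cell-based assay with luminescence read-out, confirmatory dose-response testing for agonist activity of biased ligands at MC4R; human U2OS cells with tagged receptor and beta-arrestin; potency of agonists that increase receptor coupling to beta-arrestin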
[10] = molecular target: T4, Sentrin-specific protease 1 (Homo sapiens, UniProt Q9P0U3); test: potency of human SENP1 inhibitors, dose response, biochemical, kinetic FRET (AID 651697); type: functional; details: read-out: IC50_Mean
[11] = molecular target: T4, Sentrin-specific protease 1; test: Dose response confirmation of small molecule inhibitors of the catalytic domain of the SUMO protease, SENP1 in a FRET assay.; type: functional; details: read-out: IC50_Mean
[12] = Shn3 3'UTR reporter inhibitors, dose response, cell-based, Clone20 osteoblasts, firefly luciferase, cherry-picked (AID 624132); type: functional;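 note: firefly luciferase luminescence from reporter carrying the Shn3 3'UTR in osteoblasts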
[13] = HepG2 cell cytotoxicity, dose response, cytotoxicity control for Shn3 inhibitor project, CellTiter-Glo, cherry-picked (AID 624134); type: functional, cell-based
[14] = control 3'UTR Renilla luciferase suppression, dose response, counter-screen for Shn3 inhibitor project, cell-based, Clone20-Shn3RL, cherry-picked (AID 624133); type: functional
Protein Wnt-3a = Protein Wnt-3a (Mus musculus, UniProt P27467); test: Wnt3a-driven reporter signaling inhibition, dose response, selectivity assay for Gli-SUFU antagonist project, Wnt-LIGHT cells, luminescence (AID 651570); type: functional; details: read-out: IC50_Mean;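 note: Wnt-LIGHT reporter cells stimulated with conditioned medium from Wnt3a-producing cells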
Sequence of Protein Wnt-3a (P27467 whole entry): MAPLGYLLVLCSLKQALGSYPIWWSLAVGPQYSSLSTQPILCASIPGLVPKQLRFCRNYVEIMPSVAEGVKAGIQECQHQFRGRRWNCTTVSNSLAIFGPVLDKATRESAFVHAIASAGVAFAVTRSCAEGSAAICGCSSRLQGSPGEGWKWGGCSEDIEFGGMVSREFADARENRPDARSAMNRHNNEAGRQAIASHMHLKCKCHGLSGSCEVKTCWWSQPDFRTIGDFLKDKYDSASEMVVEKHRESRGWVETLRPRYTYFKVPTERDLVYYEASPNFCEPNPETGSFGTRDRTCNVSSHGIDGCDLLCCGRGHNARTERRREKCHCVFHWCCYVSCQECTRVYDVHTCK

Sequence of Cysteine protease ATG4B (Q9Y4P1 whole entry): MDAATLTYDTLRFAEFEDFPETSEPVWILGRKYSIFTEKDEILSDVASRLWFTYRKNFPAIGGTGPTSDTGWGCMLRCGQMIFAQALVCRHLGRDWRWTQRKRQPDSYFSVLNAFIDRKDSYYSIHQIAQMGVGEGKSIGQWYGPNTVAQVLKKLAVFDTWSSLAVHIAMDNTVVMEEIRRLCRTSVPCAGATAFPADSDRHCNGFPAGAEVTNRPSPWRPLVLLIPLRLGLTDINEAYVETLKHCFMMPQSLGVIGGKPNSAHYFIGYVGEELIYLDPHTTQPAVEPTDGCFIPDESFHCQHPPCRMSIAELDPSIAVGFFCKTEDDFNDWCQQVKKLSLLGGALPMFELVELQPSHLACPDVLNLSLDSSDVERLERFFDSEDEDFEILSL
Sequence of Phospholipase A2 (P04054 whole entry, the tested form may be a part): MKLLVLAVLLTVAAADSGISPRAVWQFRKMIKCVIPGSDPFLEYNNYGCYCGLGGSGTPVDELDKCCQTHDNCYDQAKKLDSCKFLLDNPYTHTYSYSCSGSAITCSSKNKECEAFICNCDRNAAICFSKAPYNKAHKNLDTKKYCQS
T4 sequence (Q9P0U3 whole entry, the tested form may be a part): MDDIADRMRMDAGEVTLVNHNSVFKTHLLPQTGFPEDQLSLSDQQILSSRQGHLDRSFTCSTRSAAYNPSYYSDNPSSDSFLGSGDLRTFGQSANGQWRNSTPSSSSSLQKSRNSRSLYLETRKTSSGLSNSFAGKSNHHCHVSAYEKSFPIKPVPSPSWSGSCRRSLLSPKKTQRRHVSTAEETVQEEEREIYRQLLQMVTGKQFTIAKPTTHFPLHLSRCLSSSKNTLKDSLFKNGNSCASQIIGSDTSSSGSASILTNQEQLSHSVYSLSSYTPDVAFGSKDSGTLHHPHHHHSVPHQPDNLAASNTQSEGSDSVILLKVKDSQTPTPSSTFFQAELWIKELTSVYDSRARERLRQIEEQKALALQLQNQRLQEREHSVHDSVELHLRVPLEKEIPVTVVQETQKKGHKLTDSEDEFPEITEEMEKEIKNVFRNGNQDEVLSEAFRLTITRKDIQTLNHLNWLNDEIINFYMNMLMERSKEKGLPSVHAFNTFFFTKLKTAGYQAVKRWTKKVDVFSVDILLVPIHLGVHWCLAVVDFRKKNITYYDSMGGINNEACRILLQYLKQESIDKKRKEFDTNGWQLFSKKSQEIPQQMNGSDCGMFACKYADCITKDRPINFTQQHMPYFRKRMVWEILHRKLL
Sequence of Low molecular weight phosphotyrosine protein phosphatase (P24666 whole entry): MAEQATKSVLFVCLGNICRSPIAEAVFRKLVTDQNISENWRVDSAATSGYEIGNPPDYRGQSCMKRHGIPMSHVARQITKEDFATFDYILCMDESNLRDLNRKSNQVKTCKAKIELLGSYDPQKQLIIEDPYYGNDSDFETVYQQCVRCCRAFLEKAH
Sequence of DNA topoisomerase (A0A2S9PM60 whole entry): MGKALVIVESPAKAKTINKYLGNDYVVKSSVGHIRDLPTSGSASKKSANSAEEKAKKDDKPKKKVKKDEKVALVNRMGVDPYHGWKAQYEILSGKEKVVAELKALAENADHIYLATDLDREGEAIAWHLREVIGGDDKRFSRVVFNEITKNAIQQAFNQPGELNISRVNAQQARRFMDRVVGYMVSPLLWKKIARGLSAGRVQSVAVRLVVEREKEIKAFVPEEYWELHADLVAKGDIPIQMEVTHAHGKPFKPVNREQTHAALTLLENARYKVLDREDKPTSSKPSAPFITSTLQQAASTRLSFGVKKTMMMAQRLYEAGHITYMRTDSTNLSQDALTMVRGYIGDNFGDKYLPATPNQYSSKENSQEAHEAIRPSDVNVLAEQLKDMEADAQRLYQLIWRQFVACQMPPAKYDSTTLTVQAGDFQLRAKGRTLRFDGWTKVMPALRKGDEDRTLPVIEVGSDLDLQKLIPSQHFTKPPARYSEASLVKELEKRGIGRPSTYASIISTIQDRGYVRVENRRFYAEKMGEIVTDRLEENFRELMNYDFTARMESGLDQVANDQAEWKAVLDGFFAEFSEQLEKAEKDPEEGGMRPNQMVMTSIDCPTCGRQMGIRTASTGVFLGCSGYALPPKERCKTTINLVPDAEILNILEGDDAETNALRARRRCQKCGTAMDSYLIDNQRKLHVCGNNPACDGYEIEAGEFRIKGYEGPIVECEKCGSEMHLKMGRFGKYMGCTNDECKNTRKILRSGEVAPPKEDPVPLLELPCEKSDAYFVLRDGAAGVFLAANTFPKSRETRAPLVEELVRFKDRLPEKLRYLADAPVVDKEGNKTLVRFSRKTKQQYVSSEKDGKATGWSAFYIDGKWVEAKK
Sequence of Melanocortin receptor 4 (P32245 whole entry): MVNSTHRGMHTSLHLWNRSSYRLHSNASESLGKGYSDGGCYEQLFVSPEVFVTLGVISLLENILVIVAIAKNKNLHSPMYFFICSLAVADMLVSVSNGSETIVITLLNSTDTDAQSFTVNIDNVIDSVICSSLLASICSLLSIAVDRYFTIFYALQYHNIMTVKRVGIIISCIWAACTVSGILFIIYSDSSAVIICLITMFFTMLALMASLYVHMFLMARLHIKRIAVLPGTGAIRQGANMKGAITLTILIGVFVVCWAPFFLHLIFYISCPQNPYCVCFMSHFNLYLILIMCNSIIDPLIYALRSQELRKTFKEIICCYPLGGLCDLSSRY
Sequence of DNA (cytosine-5)-methyltransferase 1 (P26358 whole entry): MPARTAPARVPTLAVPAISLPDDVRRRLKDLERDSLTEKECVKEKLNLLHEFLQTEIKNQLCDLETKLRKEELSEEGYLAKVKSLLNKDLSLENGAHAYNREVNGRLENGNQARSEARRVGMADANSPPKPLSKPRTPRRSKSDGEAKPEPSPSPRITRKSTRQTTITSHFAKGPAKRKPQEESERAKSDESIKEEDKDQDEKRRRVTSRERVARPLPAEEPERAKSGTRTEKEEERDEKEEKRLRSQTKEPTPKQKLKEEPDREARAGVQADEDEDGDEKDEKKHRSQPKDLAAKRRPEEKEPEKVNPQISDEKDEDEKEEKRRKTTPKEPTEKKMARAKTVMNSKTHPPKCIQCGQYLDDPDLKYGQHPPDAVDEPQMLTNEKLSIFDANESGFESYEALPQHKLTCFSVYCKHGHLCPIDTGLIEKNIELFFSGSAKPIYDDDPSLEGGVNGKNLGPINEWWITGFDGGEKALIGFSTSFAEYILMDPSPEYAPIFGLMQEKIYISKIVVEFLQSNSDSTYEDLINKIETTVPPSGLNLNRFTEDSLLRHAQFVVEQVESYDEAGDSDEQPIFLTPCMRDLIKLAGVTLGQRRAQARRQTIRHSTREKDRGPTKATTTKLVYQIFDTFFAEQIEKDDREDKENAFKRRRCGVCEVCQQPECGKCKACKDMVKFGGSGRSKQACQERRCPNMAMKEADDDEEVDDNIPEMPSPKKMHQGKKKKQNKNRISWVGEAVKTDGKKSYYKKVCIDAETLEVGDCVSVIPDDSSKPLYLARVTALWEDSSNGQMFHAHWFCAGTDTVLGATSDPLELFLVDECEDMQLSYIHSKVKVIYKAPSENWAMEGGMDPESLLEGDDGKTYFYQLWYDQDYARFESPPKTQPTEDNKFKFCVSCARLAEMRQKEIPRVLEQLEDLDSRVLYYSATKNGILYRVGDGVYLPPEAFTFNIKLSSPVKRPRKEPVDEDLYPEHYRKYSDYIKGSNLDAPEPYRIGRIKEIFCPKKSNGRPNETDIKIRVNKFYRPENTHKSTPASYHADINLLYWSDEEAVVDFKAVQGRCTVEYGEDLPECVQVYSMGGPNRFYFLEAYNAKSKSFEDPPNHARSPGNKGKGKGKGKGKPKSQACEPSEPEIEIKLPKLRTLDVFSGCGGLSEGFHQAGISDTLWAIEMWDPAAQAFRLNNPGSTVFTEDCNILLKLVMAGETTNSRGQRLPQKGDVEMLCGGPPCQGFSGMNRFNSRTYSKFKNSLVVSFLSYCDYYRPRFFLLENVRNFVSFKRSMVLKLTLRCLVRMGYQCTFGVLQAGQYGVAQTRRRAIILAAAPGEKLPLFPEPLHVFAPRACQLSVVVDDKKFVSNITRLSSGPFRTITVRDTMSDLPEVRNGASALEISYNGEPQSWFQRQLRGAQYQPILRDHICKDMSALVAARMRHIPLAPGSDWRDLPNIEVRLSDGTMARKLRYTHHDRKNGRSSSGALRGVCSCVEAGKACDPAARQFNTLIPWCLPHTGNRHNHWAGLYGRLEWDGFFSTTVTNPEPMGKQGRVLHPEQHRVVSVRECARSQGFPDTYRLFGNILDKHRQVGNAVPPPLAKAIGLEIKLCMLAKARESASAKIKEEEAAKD

SMILES: COc1ccc(OC)c(-c2cc(C(=O)N3CCCc4ccccc43)no2)c1
- IC50 (Cysteine protease ATG4B): 20.1 µM (inactive)
- IC50 (Phospholipase A2): 14.8 µM (active)

SMILES: Cc1ccc(C(=O)NN2CC(=O)C(c3nc(-c4cccc([N+](=O)[O-])c4)cs3)=C2N)cc1
- IC50 [1]: 4.06 µM (active)
- IC50 [2]: > 99 µM (inactive)

SMILES: Oc1nnc(Cc2ccc(-c3ccc(Cl)cc3)o2)c2ccccc12
- AC50 (DNA topoisomerase): 9.08 µM (active)

SMILES: O=C(COc1ccc2c(-c3ccccc3)cc(=O)oc2c1)Nc1ccc(CCO)cc1
- IC50 [3]: 40.7 µM (inactive)

SMILES: COc1ccc(-c2oc3ccccc3c2C#Cc2cncn2C)cc1
- AC50 [4]: 2.05 µM (active)
- AbsAC35_uM [5]: 54.48 µM

SMILES: C=CCNC1=NN=C(c2ccc3c(c2)OCCO3)CS1
- EC50 [6]: 5.84 µM (active)
- AC50 [7]: 3.37 µM (active)
- AC50 (A-375 [8]): 48.9 µM (active)

SMILES: S=C(NCc1ccccc1)Nc1cccc(Cl)c1
- IC50 (Cysteine protease ATG4B): 13.3 µM (active)
- IC50 (Phospholipase A2): 8.8 µM (active)

SMILES: O=[N+]([O-])c1ccc(S(=O)(=O)CC(CN2CCCCC2)N2CCCCC2)cc1 (stereo not drawn)
- AC50 [4]: 2.17 µM (active)
- AC50 [7]: 4.88 µM (active)
- AC50 (A-375 [9]): 19.9 µM (active)

SMILES: COc1ccc(-c2ccc3c(c2)S(=O)(=O)c2cccc(C(=O)NCc4cc(C)oc4C(F)(F)F)c2C3=O)cc1OC
- EC50 (Melanocortin receptor 4): > 89.2 µM (inactive)
- IC50 [10]: 15.8 µM (active)
- IC50 [11]: 13.3 µM (active)

SMILES: CN(Cc1ccc(OC(F)F)cc1)C(=O)c1cccc(S(=O)(=O)N2CCN(Cc3ccccc3)CC2)c1
- AC50 [12]: 2.37 µM (active)
- AC50 [13]: 57.2 µM (active)
- AC50 [14]: 2.94 µM (active)
- IC50 (Protein Wnt-3a): 6.19 µM (active)
